Results on 20 compounds are retold here after patent publication US5789434A, “Derivatives of substituted 4-biarylbutyric acid as matrix metalloprotease inhibitors” (priority 1995, dated 1998).

Holding throughout (type): biochemical
For assay [1], the target named is T1, MMP-9 (Homo sapiens, UniProt P14780).
T1 construct: from tissue; host or cells: human polymorphonuclear leukocytes (PMN) from whole blood (New York Blood Center), PMA-stimulated supernatant
The experiment in a line: Thiopeptilide MMP-9 Inhibition Assay. The settings on record: for inhibition at 5 µM: read-out: MMP-9: Thiopep. % inhibition; for IC50: pH 6.5, x (n) = average of n determinations, read-out: MMP-9: Thiopep. IC50.

The target of assay [2] is T1, MMP-9. The experiment in a line: Automated MMP Profiling Assay, MMP-9 fluorogenic. As to conditions: for IC50: 96-well automated, P218.
Assay [3] addresses T2, MMP-2 (Homo sapiens, UniProt P08253).
T2 sequence (P08253 110-660): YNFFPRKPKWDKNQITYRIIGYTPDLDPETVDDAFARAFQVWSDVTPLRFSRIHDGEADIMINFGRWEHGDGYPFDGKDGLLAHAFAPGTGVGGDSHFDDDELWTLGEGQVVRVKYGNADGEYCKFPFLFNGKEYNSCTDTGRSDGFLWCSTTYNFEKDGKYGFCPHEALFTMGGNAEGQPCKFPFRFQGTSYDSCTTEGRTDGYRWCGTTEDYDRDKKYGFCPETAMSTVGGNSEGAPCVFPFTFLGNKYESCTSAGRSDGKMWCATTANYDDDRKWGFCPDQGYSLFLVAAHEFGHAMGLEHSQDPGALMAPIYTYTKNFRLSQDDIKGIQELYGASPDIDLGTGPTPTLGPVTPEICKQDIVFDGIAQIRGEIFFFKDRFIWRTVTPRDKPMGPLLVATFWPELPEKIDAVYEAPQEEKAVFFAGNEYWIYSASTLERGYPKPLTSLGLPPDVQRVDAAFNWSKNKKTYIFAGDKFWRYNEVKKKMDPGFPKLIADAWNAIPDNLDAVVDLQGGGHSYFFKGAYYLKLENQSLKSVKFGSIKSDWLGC
The experiment in a line: Automated MMP Profiling Assay, MMP-2 fluorogenic. The settings on record: for IC50: 96-well automated, P218, read-out: MMP-2 Fluorogenic IC50 (profiling).

Assay [4] addresses T3, MMP-3 (Homo sapiens, UniProt P08254).
T3 construct: Truncated Prostromelysin-257 was expressed in a soluble form in E.coli; made in house; host or cells: E. coli
The assay is described as follows: Primary Thiopeptilide MMP-3 Inhibition Assay. The settings on record: for IC50: pH 6.5, 13 nM stromelysin, x (n) = average of n determinations, read-out: MMP-3 Thiopep. IC50.
Experimental: Enzyme: recombinant stromelysin expressed in E.coli and purified as described above. […] The protocols for the assay of compounds as stromelysin inhibitors was the same as that used for MMP-9 except that the assay buffer was 50 mM MES, pH 6.5 containing 150 mM NaCl, 10 mM CaCl2, 0.005% Brij, and 1% DMSO.

For assay [5], the target named is T3, MMP-3. The assay is described as follows: Automated MMP Profiling Assay, MMP-3 fluorogenic. The settings on record: for IC50: 96-well automated, P218. The source says:
This assay with each invention compound was run with the three enzymes MMP-3, MMP-9 and MMP-2 in parallel as adapted for a 96-well microtitre plate using a Hamilton A® workstation.

For assay [6], the target named is T3, MMP-3. The experiment in a line: Secondary P218 Quenched fluorescence Assay for MMP-3 Inhibition. As to conditions: for IC50: P218 substrate, pH 6.5, 25° C., x (n) = average of n determinations, read-out: MMP-3 Fluorogenic IC50. How it is done: Truncated Prostromelysin-257 was expressed in a soluble form in E.coli as described by Marcy et al., Biochemistry, 30, 6476-6483, 1991. Soluble truncated prostromelysin was purified by a modification of the monoclonal antibody affinity chromatography method described by Housley et al., J. Biol. Chem., 268, 4481-87, 1993.
The assay is run continuously in a 3.0 ml cuvette using a Perkin-Elmer LS 50 B Spectrofluorimeter at 25° C. in a final volume of 2.0 mls. P218 substrate (10 mM) in 100% DMSO is diluted to a final concentration of 2.0 micromolar (μM) into assay buffer: 50 mM MES, pH 6.5 containing 150 mM NaCl, 10 mM CaCl2, 0.005% Brij-35, and 1%(v/v) DMSO. Test compounds(10 mM) in DMSO are diluted in assay buffer at an initial concentration of 10 to 100 micromolar. […] The reaction is initiated by the addition of recombinant stromelysin (MMP-3) at a final concentration of 1.0 nM. Upon peptide cleavage, the fluorescent MCA group was detected using an excitation wavelength of 328 nanometers and an emission wavelength of 393 nanometers.

Assay [7] has as its target T2, MMP-2. The experiment in a line: Secondary P218 Quenched fluorescence Assay for MMP-2 Inhibition. The settings on record: for IC50: 0.2 nM enzyme, x (n) = average of n determinations, read-out: MMP-2 Fluorogenic IC50.

Non-standard residues stand in square brackets, D forms with d. Residues, ends and D or L forms follow the SMILES beside them. *: point of attachment. Dnp = O=[N+]([O-])c1ccc(*)c([N+](=O)[O-])c1; Mca = COc1ccc2c(CC(=O)*)cc(=O)oc2c1; Dap = NC[C@H](N)C(=O)O Where only a bound is given, the exact number is not on record here.

T1 sequence (P14780 107-707 limits assumed): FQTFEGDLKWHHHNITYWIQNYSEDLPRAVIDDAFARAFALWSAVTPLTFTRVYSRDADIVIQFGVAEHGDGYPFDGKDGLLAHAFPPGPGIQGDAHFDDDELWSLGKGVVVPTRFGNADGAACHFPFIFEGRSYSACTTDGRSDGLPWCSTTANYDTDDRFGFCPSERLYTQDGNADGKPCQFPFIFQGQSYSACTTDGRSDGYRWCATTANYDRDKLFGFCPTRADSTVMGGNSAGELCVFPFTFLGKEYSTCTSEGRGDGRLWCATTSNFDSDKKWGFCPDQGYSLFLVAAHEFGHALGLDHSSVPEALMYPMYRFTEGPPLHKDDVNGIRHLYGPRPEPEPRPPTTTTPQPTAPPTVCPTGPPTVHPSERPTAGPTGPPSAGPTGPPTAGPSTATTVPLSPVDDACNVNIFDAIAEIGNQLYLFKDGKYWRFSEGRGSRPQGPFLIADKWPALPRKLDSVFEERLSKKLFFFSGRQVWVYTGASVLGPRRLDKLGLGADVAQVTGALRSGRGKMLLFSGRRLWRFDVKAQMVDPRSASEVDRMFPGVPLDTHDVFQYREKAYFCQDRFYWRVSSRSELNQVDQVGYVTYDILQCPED
T3 sequence (P08254 100-274 limits assumed): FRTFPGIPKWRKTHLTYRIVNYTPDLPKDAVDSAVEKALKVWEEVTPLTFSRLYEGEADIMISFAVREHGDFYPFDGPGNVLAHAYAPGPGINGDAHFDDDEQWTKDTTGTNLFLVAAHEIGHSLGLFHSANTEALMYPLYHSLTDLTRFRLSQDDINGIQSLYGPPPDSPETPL

For the compound `CCCCCOc1ccc(-c2ccc(C(=O)CC(CCCc3ccccc3)C(=O)O)cc2)cc1` (stereo not drawn) [Example 85, 4-[4-(4-pentyloxyphenyl)phenyl]-4-oxo-2-(3-phenylpropyl)butanoic acid], the inhibition at 5 µM in assay [1] was determined as 44%. For the same compound, the IC50 in assay [2] came out at 767 nM; in assay [3], 32 nM; in assay [4] it was 37 nM; in assay [5], 80 nM.

Take `CCOC(=O)/C=C/c1ccc(-c2ccc(C(=O)CC(CCCc3ccccc3)C(=O)O)cc2)cc1` (stereo not drawn) [Example 42, [1,1'-Biphenyl]-4-butanoic acid, 4'-(3-ethoxy-3-oxo-1-propenyl)-γ-oxo-α-(3-phenylproyl)-, (E)-]: the IC50 in assay [6] came to 48 nM; in assay [7] (P218 substrate), 21 nM.

Consider `COc1ccc2c(CC(=O)N3CCC[C@H]3C(=O)N[C@@H](CCCCN)C(=O)N3CCC[C@H]3C(=O)N[C@@H](CC(C)C)C(=O)N[C@@H](C)C(=O)N[C@@H](CC(C)C)C(=O)N[C@@H](CNc3ccc([N+](=O)[O-])cc3[N+](=O)[O-])C(=O)N[C@@H](C)C(=O)N[C@@H](CCCNC(=N)N)C(N)=O)cc(=O)oc2c1` [Example P218] (Mca-PKPLAL[Dap](Dnp)AR-NH2), for which the “turnover number of MMP-2” value in assay [7] (P218 substrate) is recorded as 400,000.

Turning to `O=C(O)[C@@H]1[C@@H](Sc2ccccc2)CC[C@H]1C(=O)c1ccc(-c2ccc(Cl)cc2)cc1` [Example 297, (1R,2S,5R)-trans-5-[4-(4-chlorophenyl)phenylcarbonyl]-trans-2-phenylthiocyclopentanecarboxylic acid], the IC50 in assay [1] was 640 nM; in assay [2] it was 2370 nM; in assay [3] it was 2070 nM; in assay [5] it was 5750 nM.

For `CC(C)CC(CC(=O)O)C(=O)c1ccc(-c2ccc(Cl)cc2)cc1` (single isomer, unassigned) [Example 4, 5-methyl-3-[oxo-(4'-chloro-4-biphenyl)methyl]hexanoic acid], the IC50 in assay [6] turned out to be 480 nM; in assay [1], 2700 nM; in assay [4] it was 379 nM.

With `CC(C)CC(CC(=O)c1ccc(-c2ccc(I)cc2)cc1)C(=O)O` (stereo not drawn) [Example 41, [1,1'-Biphenyl]-4-butanoic acid, 4'-iodo-α-(2-methylpropyl)-γ-oxo-], the IC50 in assay [6] came to 260 nM; in assay [1], 500 nM; in assay [4] it was 118 nM.

`CC(C)CC(CC(=O)c1ccc(-c2ccc(Br)cc2)cc1)C(=O)O` (stereo not drawn) [Example 14, [1,1'-Biphenyl]-4-butanoic acid, 4'-bromo-α-(2-methylpropyl)-γ-oxo-]: the IC50 in assay [6] worked out at 570 nM; in assay [1], 1200 nM; in assay [4], 440 nM.

In the case of `O=C(C[C@@H](CCCc1ccccc1)C(=O)O)c1ccc(-c2ccc(Cl)cc2)cc1` [Example 115, 4-[4-(4-chlorophenyl)phenyl]-4-oxo-2R-(3-phenylpropyl)butanoic acid], the inhibition at 5 µM in assay [1] is 31%; in assay [4] (at 5 μM, read-out: MMP-3 Thiopep. % inhibition), 39%. Moreover, the results for the IC50 in assay [2], in assay [3] and in assay [5] were greater than 1250 nM, 1750 nM and greater than 1250 nM, respectively.

`CC(C)(C)C(=O)SCC(CC(=O)c1ccc(-c2ccc(Cl)cc2)cc1)C(=O)O` (stereo not drawn) [Example 193, [1,1'-Biphenyl]-4-butanoic acid, 4'-chloro-α-[[(2,2-dimethyl-1-oxopropyl)thio]methyl]-γ-oxo-]: the IC50 in assay [6] was 150 nM; in assay [1], 2450 nM; in assay [7] (P218 substrate), 40 nM; in assay [4], 153 nM.

For the compound `CCCCCC(CC(=O)c1ccc(-c2ccc(Cl)cc2)cc1)C(=O)O` (stereo not drawn) [Example 26, [1,1'-Biphenyl]-4-butanoic acid, 4'-chloro-γ-oxo-α-pentyl-], the IC50 was 240 nM in assay [6], 4300 nM in assay [1] and 620 nM in assay [4].

`O=C(O)CCc1ccc(-c2ccc(CCC(CCCc3ccccc3)C(=O)O)cc2)cc1` (stereo not drawn) [Example 45, [1,1'-Biphenyl]-4-butanoic acid, 4'-(2-carboxyethyl)-α-(3-phenylpropyl)-]: the inhibition at 5 µM stood at 43% in assay [6] (at 5 μM, read-out: MMP-3 Fluorogenic % inhibition) and 56% in assay [7] (at 5 μM, read-out: MMP-2 Fluorogenic % inhibition).

As to `O=C(CC(Cc1ccccc1)C(=O)O)c1ccc(-c2ccc(Cl)cc2)cc1` (stereo not drawn) [Example 131, [1,1'-Biphenyl]-4-butanoic acid, 4'-chloro-γ-oxo-α-(phenylmethyl)-], the IC50 in assay [6] was determined as 900 nM; in assay [4], 310 nM.

For `CC(C)CC(CC(=O)c1ccc(-c2ccc(Cl)cc2)cc1)C(=O)O` (stereo not drawn) [Example 1, [1,1'-Biphenyl]-4-butanoic acid, 4'-chloro-α-(2-methylpropyl)-γ-oxo-], the IC50 was found to be 805 nM in assay [6], 1000 nM in assay [1] and 486 nM in assay [4].

Regarding `CC(C)(C)C(=O)SCC(CC(=O)c1ccc(-c2ccc(Cl)cc2)cc1)C(=O)O` (single isomer, unassigned) [Example 194, [1,1'-Biphenyl]-4-butanoic acid, 4'-chloro-α-[[(2,2-dimethyl-1-oxopropyl)thio]methyl]-γ-oxo-], the IC50 in assay [6] is 62 nM; in assay [1] it was 750 nM; in assay [4], 115 nM.

`CCOC(=O)CCc1ccc(-c2ccc(CCC(CCCc3ccccc3)C(=O)O)cc2)cc1` (stereo not drawn) [Example 44, [1,1'-Biphenyl]-4-butanoic acid, 4'-(3-ethoxy-3-oxopropyl)-α-(3-phenylpropyl)-]: the IC50 in assay [6] was found to be 1970 nM; in assay [7] (P218 substrate) it was 1150 nM.

Take `CC(C)(C)c1ccc2c(c1)C(=O)N(CCC(CC(=O)c1ccc(-c3ccc(Cl)cc3)cc1)C(=O)O)C2=O` (stereo not drawn) [Example 414, 2H-Isoindole-2-butanoic acid, α-[2-(4'-chloro[1,1'-biphenyl]-4-yl)-2-oxoethyl]-5-(1,1-dimethylethyl)-1,3-dihydro-1,3-dioxo-]: the 50% inhibitory concentration (IC50) was found to be 15 nM in assay [2], 79 nM in assay [3] and 37 nM in assay [5].

With `C=CCOc1ccc(-c2ccc(C(=O)CC(CCCc3ccccc3)C(=O)O)cc2)cc1` (stereo not drawn) [Example 95, [1,1'-Biphenyl]-4-butanoic acid, γ-oxo-α-(3-phenylpropyl)-4'-(2-propenyloxy)-], the IC50 in assay [2] is 77 nM; in assay [3], 26 nM; in assay [5] it was 79 nM.

Consider `O=C(c1ccc(-c2ccc(Cl)cc2)cc1)[C@@H]1CCN(C(=O)OCc2ccccc2)[C@H]1C(=O)O` [Example 167, 1,2-Pyrrolidinedicarboxylic acid, 3-[(4'-chloro[1,1'-biphenyl]-4-yl)carbonyl],1-(phneylmethyl) ester, (2R-trans)-], for which the inhibition at 5 µM in assay [2] (at 5 μM) was 23%; in assay [3] (at 5 μM), 31%; in assay [5] (at 5 μM) it was 18%.

`O=C(CC(CCCc1ccccc1)C(=O)O)c1ccc(-c2ccc(OCc3cccc(Cl)c3)cc2)cc1` (stereo not drawn) [Example 106, [1,1'-Biphenyl]-4-butanoic acid, 4'-[(3-chlorophenyl)methoxy]-γ-oxo-α-(3-phenylpropyl)-]: the IC50 in assay [2] is 622 nM; in assay [3] it was 43 nM; in assay [5], 57 nM.

As for `CCOc1ccc(-c2ccc(C(=O)CC(CCN3C(=O)CCC3=O)C(=O)O)cc2)cc1` (stereo not drawn) [Example 412, 1-Pyrrolidinebutanoic acid, α-[2-(4'-ethoxy[1,1'-biphenyl]-4-yl)-2-oxoethyl]-2,5-dioxo-], the IC50 is 41 nM in assay [2], 10 nM in assay [3] and 84 nM in assay [5].
